Data: paper PMC4303209, “A novel phosphatidylinositol 3-kinase (PI3K) inhibitor directs a potent FOXO-dependent, p53-independent cell cycle arrest phenotype characterized by the differential induction of a subset of FOXO-regulated genes” (Breast Cancer Research : BCR, 2014)

Test system: MCF-7 breast cancer cells
Test: Microarray gene expression analysis (Agilent whole human genome 4 x 44K; compound vs DMSO, LIMMA log2 fold change)
Type: cell-based

## Cn1ncc2c(N3CCOCC3)nc(-c3cccc(O)c3)nc21 [ETP-45658]
Gene PDGFRB (5159), apoptosis genes
  PDGFRB log2FC: 0.022
Gene PEG3 (5178), apoptosis genes
  PEG3 log2FC: 0.028
Gene PEG10 (23089), apoptosis genes
  PEG10 log2FC: 0.064
Gene PF4 (5196), apoptosis genes
  PF4 log2FC: -0.049
Gene PHLDA3 (23612), apoptosis genes
  PHLDA3 log2FC: -0.007
Gene PIK3CG (5294), apoptosis genes
  PIK3CG log2FC: -0.029
Gene PKP1 (5317), apoptosis genes
  PKP1 log2FC: -0.004
Gene PLEKHG5 (57449), apoptosis genes
  PLEKHG5 log2FC: 0.079
Gene PLSCR3 (57048), apoptosis genes
  PLSCR3 log2FC: -0.068
Gene POLB (5423), apoptosis genes
  POLB log2FC: 0.060
Gene POLD4 (Gene 57804), cell cycle genes
  log2FC: -0.353
Gene POR (5447), apoptosis genes
  POR log2FC: 0.00332
Gene POU3F4 (5456), apoptosis genes
  POU3F4 log2FC: -0.034
Gene POU4F1, apoptosis genes
  POU4F1 log2FC: 0.016
Gene PPAT (Gene 10606), cell cycle genes
  log2FC: 0.187
Gene PPP1CA (Gene 5499), cell cycle genes
  log2FC: -0.227
Gene PPP2CA (Gene 5515), cell cycle genes
  log2FC: -0.322
Gene PPP2R1A (5518), apoptosis genes
  PPP2R1A log2FC: -0.055
Gene PRAMEF8 (391002), apoptosis genes
  PRAMEF8 log2FC: 0.019
Gene PRAMEF10 (343071), apoptosis genes
  PRAMEF10 log2FC: 0.00225
Gene PRKACB (Gene 5567), cell cycle genes
  log2FC: 0.355
Gene PRKAG3 (Gene 53632), cell cycle genes
  log2FC PRKAG3: -0.00189
Gene PRKRA (8575), apoptosis genes
  PRKRA log2FC: 0.029
Gene PRLR (5618), apoptosis genes
  PRLR log2FC: -0.012
Gene PROC (5624), apoptosis genes
  PROC log2FC: 0.006
Gene PROP1 (5626), apoptosis genes
  PROP1 log2FC: -0.275
Gene PSMA1 (5682), apoptosis genes
  PSMA1 log2FC: 0.045
Gene PSMA2 (Gene 5683), cell cycle genes
  log2FC: 0.460
Gene PSMA3 (Gene 5684), cell cycle genes
  log2FC: 0.270
Gene PSMA5 (5686), apoptosis genes
  PSMA5 log2FC: -0.038
Gene PSMA5 (Gene 5686), cell cycle genes
  log2FC PSMA5: -0.038
Gene PSMA7 (5688), apoptosis genes
  PSMA7 log2FC: 0.359
Gene PSMA7 (Gene 5688), cell cycle genes
  log2FC PSMA7: 0.359
Gene PSMB3 (5691), apoptosis genes
  PSMB3 log2FC: -0.030
Gene PSMB4 (Gene 5692), cell cycle genes
  log2FC: 0.132
Gene PSMB7 (5695), apoptosis genes
  PSMB7 log2FC: -0.00851
Gene PSMB7 (Gene 5695), cell cycle genes
  log2FC PSMB7: -0.00851
Gene PSMB8 (5696), apoptosis genes
  PSMB8 log2FC: -0.045
Gene PSMC4 (5704), apoptosis genes
  PSMC4 log2FC: -0.021
Gene PSMC4 (Gene 5704), cell cycle genes
  log2FC PSMC4: -0.021
Gene PSMD2 (5708), apoptosis genes
  PSMD2 log2FC: 0.090
Gene PSMD13 (5719), apoptosis genes
  PSMD13 log2FC: -0.031
Gene PSMD14 (Gene 10213), cell cycle genes
  log2FC: 0.447
Gene PSME1 (Gene 5720), cell cycle genes
  log2FC: 0.322
Gene PSME2 (5721), apoptosis genes
  PSME2 log2FC: 0.039
Gene PTTG1 (Gene 9232), cell cycle genes
  log2FC: -0.269
Gene PYCARD (29108), apoptosis genes
  PYCARD log2FC: -0.070
Gene RAB11FIP3 (Gene 9727), cell cycle genes
  log2FC: -0.225
Gene RAD51C (Gene 5889), cell cycle genes
  log2FC RAD51C: -0.019
Gene RAE1 (Gene 8480), cell cycle genes
  log2FC RAE1: 0.005
Gene RAF1 (5894), apoptosis genes
  RAF1 log2FC: -0.038
Gene RALA (Gene 5898), cell cycle genes
  log2FC: 0.348
Gene RALB (Gene 5899), cell cycle genes
  log2FC: 0.324
Gene RAMP2 (10266), apoptosis genes
  RAMP2 log2FC: -0.017
Gene RANGAP1 (Gene 5905), cell cycle genes
  log2FC RANGAP1: -0.026
Gene RAPSN (5913), apoptosis genes
  RAPSN log2FC: -0.022
Gene RARB (5915), apoptosis genes
  RARB log2FC: 0.00564
Gene RASSF6 (166824), apoptosis genes
  RASSF6 log2FC: 0.042
Gene RBBP8 (Gene 5932), cell cycle genes
  log2FC: 0.568
Gene RBL1 (Gene 5933), cell cycle genes
  log2FC: 0.284
Gene RBM7 (Gene 10179), cell cycle genes
  log2FC: 0.349
Gene RCC1 (Gene 1104), cell cycle genes
  log2FC: -0.365
Gene REEP4 (Gene 80346), cell cycle genes
  log2FC REEP4: -0.031
Gene RET (5979), apoptosis genes
  RET log2FC: -0.021
Gene RHOT2 (89941), apoptosis genes
  RHOT2 log2FC: -0.087
Gene RPA2 (Gene 6118), cell cycle genes
  log2FC RPA2: 0.00567
Gene RPS3 (6188), apoptosis genes
  RPS3 log2FC: 0.020
Gene RPS6KA2 (6196), apoptosis genes
  RPS6KA2 log2FC: 0.035
Gene RPS6KB1 (Gene 6198), cell cycle genes
  log2FC: 0.426
Gene RRN3 (653390), apoptosis genes
  RRN3 log2FC: -0.022
Gene RSPO1 (Gene 284654), cell cycle genes
  log2FC: -0.127
Gene RYR2 (6262), apoptosis genes
  RYR2 log2FC: -0.020
Gene S100A9 (6280), apoptosis genes
  S100A9 log2FC: 0.039
Gene S100A14 (57402), apoptosis genes
  S100A14 log2FC: 0.034
Gene SART1 (Gene 9092), cell cycle genes
  log2FC: -0.304
Gene SCIN (85477), apoptosis genes
  SCIN log2FC: -0.012
Gene SEH1L (Gene 81929), cell cycle genes
  log2FC: -0.373
Gene SEMA5A (9037), apoptosis genes
  SEMA5A log2FC: -0.032
Gene SENP2 (Gene 59343), cell cycle genes
  log2FC SENP2: -0.00743
Gene SERINC3 (10955), apoptosis genes
  SERINC3 log2FC: 0.046
Gene SERPINE1 (5054), apoptosis genes
  SERPINE1 log2FC: -0.036
Gene SESN1 (Gene 27244), cell cycle genes
  log2FC: 0.237
Gene SHF (90525), apoptosis genes
  SHF log2FC: 0.026
Gene SKIL (6498), apoptosis genes
  SKIL log2FC: 0.046
Gene SKIL (Gene 6498), cell cycle genes
  log2FC SKIL: 0.046
Gene SLBP (Gene 7884), cell cycle genes
  log2FC: 0.333
Gene SLC25A6 (293), apoptosis genes
  SLC25A6 log2FC: 0.025
Gene SLC26A8 (Gene 116369), cell cycle genes
  log2FC SLC26A8: -0.003
Gene SLC40A1 (30061), apoptosis genes
  SLC40A1 log2FC: -0.005
Gene SMAD1 (4086), apoptosis genes
  SMAD1 log2FC: -0.074
Gene SMNDC1 (10285), apoptosis genes
  SMNDC1 log2FC: -0.102
Gene SOD1 (6647), apoptosis genes
  SOD1 log2FC: 0.073
Gene SOS1 (6654), apoptosis genes
  SOS1 log2FC: 0.035
Gene SOX8 (30812), apoptosis genes
  SOX8 log2FC: -0.391
Gene SPO11 (Gene 23626), cell cycle genes
  log2FC SPO11: 0.008
Gene SPTAN1 (6709), apoptosis genes
  SPTAN1 log2FC: 0.094
Gene SRC (Gene 6714), cell cycle genes
  log2FC: -0.316
Gene STAG1 (Gene 10274), cell cycle genes
  log2FC: 0.343
Gene STK3 (6788), apoptosis genes
  STK3 log2FC: 0.083
Gene SULF1 (23213), apoptosis genes
  SULF1 log2FC: -0.096
Gene SUPT5H (Gene 6829), cell cycle genes
  log2FC: -0.331
Gene SUV39H2 (Gene 79723), cell cycle genes
  log2FC: -0.388
Gene SYCP2 (10388), apoptosis genes
  SYCP2 log2FC: 0.016
Gene SYCP2 (Gene 10388), cell cycle genes
  log2FC SYCP2: 0.016
Gene SYCP3 (Gene 50511), cell cycle genes
  log2FC SYCP3: 0.00367
Gene TAF2 (Gene 6873), cell cycle genes
  log2FC: 0.361
Gene TAF6 (Gene 6878), cell cycle genes
  log2FC TAF6: 0.055
Gene TAOK2 (Gene 9344), cell cycle genes
  log2FC: -0.736
Gene TEK (7010), apoptosis genes
  TEK log2FC: -0.008
Gene TEX14 (Gene 56155), cell cycle genes
  log2FC: 0.240
Gene TEX15 (Gene 56154), cell cycle genes
  log2FC: 0.238
Gene TFAP2D (83741), apoptosis genes
  TFAP2D log2FC: -0.029
Gene TGFA (Gene 7039), cell cycle genes
  log2FC: -0.305
Gene TGFB2 (7042), apoptosis genes
  TGFB2 log2FC: -0.011
Gene TGFB2 (Gene 7042), cell cycle genes
  log2FC TGFB2: -0.011
Gene THEM4 (117145), apoptosis genes
  THEM4 log2FC: -0.054
Gene THOC5 (Gene 8563), cell cycle genes
  log2FC THOC5: 0.010
Gene TMBIM4 (51643), apoptosis genes
  TMBIM4 log2FC: 0.025
Gene TMEM67 (Gene 91147), cell cycle genes
  log2FC: 0.184
Gene TMEM102 (284114), apoptosis genes
  TMEM102 log2FC: -0.101
Gene TNFRSF1B (7133), apoptosis genes
  TNFRSF1B log2FC: -0.022
Gene TNFRSF8 (943), apoptosis genes
  TNFRSF8 log2FC: 0.055
Gene TNFRSF10C (8794), apoptosis genes
  TNFRSF10C log2FC: 0.00147
Gene TNFSF8 (944), apoptosis genes
  TNFSF8 log2FC: -0.043
Gene TNFSF9 (8744), apoptosis genes
  TNFSF9 log2FC: 0.017
Gene TNFSF10 (8743), apoptosis genes
  TNFSF10 log2FC: -0.021
Gene TNFSF12 (8742), apoptosis genes
  TNFSF12 log2FC: 0.112
Gene TNFSF14 (8740), apoptosis genes
  TNFSF14 log2FC: 0.017
Gene TNFSF15 (9966), apoptosis genes
  TNFSF15 log2FC: 0.027
Gene TNFSF18 (8995), apoptosis genes
  TNFSF18 log2FC: 0.00185
Gene TP73 (Gene 7161), cell cycle genes
  log2FC: -0.503
Gene TPD52L1 (Gene 7164), cell cycle genes
  log2FC: 0.379
Gene TPX2 (22974), apoptosis genes
  TPX2 log2FC: 0.049
Gene TRAF2 (7186), apoptosis genes
  TRAF2 log2FC: -0.056
Gene TRAF3IP2 (10758), apoptosis genes
  TRAF3IP2 log2FC: -0.070
Gene TRIP13 (Gene 9319), cell cycle genes
  log2FC TRIP13: 0.007
Gene TUBGCP6 (Gene 85378), cell cycle genes
  log2FC: -0.470
Gene TXNDC5 (81567), apoptosis genes
  TXNDC5 log2FC: 0.070
Gene TYMS (Gene 7298), cell cycle genes
  log2FC TYMS: -0.0037
Gene UBD (10537), apoptosis genes
  UBD log2FC: -0.00756
Gene UBE2V2 (7336), apoptosis genes
  UBE2V2 log2FC: -0.109
Gene UNC13B (10497), apoptosis genes
  UNC13B log2FC: 0.009
Gene VDAC2 (7417), apoptosis genes
  VDAC2 log2FC: 0.033
Gene VIM (7431), apoptosis genes
  VIM log2FC: 0.051
Gene VIP (7432), apoptosis genes
  VIP log2FC: -0.146
Gene VNN1 (8876), apoptosis genes
  VNN1 log2FC: 0.157
Gene VRK1 (Gene 7443), cell cycle genes
  log2FC: 0.426
Gene WNK3 (65267), apoptosis genes
  WNK3 log2FC: 0.012
Gene WTAP (Gene 9589), cell cycle genes
  log2FC: -0.387
Gene YY1AP1 (Gene 55249), cell cycle genes
  log2FC: 0.220
Gene ZBTB16 (7704), apoptosis genes
  ZBTB16 log2FC: 0.144
Gene ZC3H12D (Gene 85313), cell cycle genes
  log2FC ZC3H12D: -0.006
Gene ZC3HC1 (Gene 51530), cell cycle genes
  log2FC: 0.230
Gene ZNF205 (7755), apoptosis genes
  ZNF205 log2FC: -0.229
Gene ZNF443 (10224), apoptosis genes
  ZNF443 log2FC: -0.028
Gene ZNF503 (Gene 84858), cell cycle genes
  log2FC: -0.229
Gene ZNF622 (90441), apoptosis genes
  ZNF622 log2FC: 0.041
